System: flowering barley line derived from a barley line "Satsuki-Nijo"
Test: Flowering inhibition test on harvested unflowered barley ears treated with reagent solution
Type: in vivo
Protocol: A flowering barley line derived from a barley line “Satsuki-Nijo” was conventionally cultivated in the fields. At the earing time, unflowered ears immediately after earing were harvested. Each group of three ears was then treated with 10 cc reagent solution containing 1-100 ppm methyl jasmonate as a jasmonic acid derivative in an artificial climate chamber under the following conditions: in the light having a brightness of 120 […] for 14 hours at 25° C.; and in the dark for 10 hours at 15° C.
Flowered ears were transferred to a culture medium for cuttings and cultivated for about 20 days. The number of anthers remaining in a glumaceous flower after self-pollination was measured and used as a control.

[1] = Table 2 (repeated test), reagent concentration 1 ppm
[2] = Table 2 (repeated test), reagent concentration 10 ppm
[3] = Table 2 (repeated test), reagent concentration 100 ppm

CC/C=C\CC1C(=O)CCC1CC(=O)OC (stereo not drawn) [Methyl jasmonate, methyl jasmonate] was tested, and the “Number of remaining anthers per one glumaceous flower” value (Table 1, reagent concentration 1 ppm, after self-pollination) was 0.7, the “Number of flowered ears on the 6th day” value (Table 1, reagent concentration 1 ppm, group of three ears, 10 cc solution) was 3 and the “Number of remaining anthers per one glumaceous flower” value (Table 1, reagent concentration 10 ppm, after self-pollination) was 1.7. The “Number of remaining anthers per one glumaceous flower” value (Table 1, reagent concentration 10 ppm, after self-pollination, listed as methyl jasmonate) was “more anthers than non-treated ears”, the “Number of flowered ears on the 6th day” value (Table 1, reagent concentration 10 ppm, group of three ears, 10 cc solution) was 3 and the “Number of remaining anthers per one glumaceous flower” value (Table 1, reagent concentration 100 ppm, after self-pollination) was 2.1. For the same compound, the “Number of remaining anthers per one glumaceous flower” value (Table 1, reagent concentration 100 ppm, after self-pollination, listed as methyl jasmonate) was “many more remaining anthers”, the “Number of flowered ears on the 6th day” value (Table 1, reagent concentration 100 ppm, group of three ears, 10 cc solution) was 0 and the “Number of flowered ears on the 6th day” value (Table 1, reagent concentration 100 ppm, group of three ears, 10 cc solution, listed as methyl jasmonate) was “no flowering was observed”. For the same compound, the “Number of flowered ears on the 6th day” value [1] was 3, the “Number of remaining anthers per one glumaceous flower” value [1] was 1.1 and the “Number of flowered ears on the 6th day” value [2] was 3. The “Number of remaining anthers per one glumaceous flower” value [2] was 1.7, the “Number of flowered ears on the 6th day” value [3] was 0 and the “Number of remaining anthers per one glumaceous flower” value [3] was 2.6.
